Where a name gives a salt, the structure may show the parent alone.
melting point [°C]	SMILES
88 to 90	OCCc1ccc(Nc2ncc3c(n2)-c2ccccc2C(c2cccc(Br)c2)C3)cc1 (stereo not drawn) [Example 7, 2-(4-(6-(3-bromophenyl)-5,6-dihydrobenzo[h]quinazolin-2-ylamino)phenyl)ethanol]
121 to 122	COCCN1CCN(CCc2ccc(Nc3ncc4c(n3)-c3ccccc3C(c3ccc(Cl)c(Cl)c3)C4)cc2)CC1 (stereo not drawn) [Example 33, 6-(3,4-dichlorophenyl)-N-(4-(2-(4-(2-methoxyethyl)piperazin-1-yl)ethyl)phenyl)-5,6-dihydrobenzo[h]quinazolin-2-amine]
125 to 130	CCCCN(C)CCc1cc(Nc2ncc3c(n2)-c2ccccc2[C@H](c2ccccc2F)C3)ccc1F (as salt: hydrochloride) [Example 172, (R)—N-(3-(2-(butyl(methyl)amino)ethyl)-4-fluorophenyl)-6-(2-fluorophenyl)-5,6-dihydrobenzo[h]quinazolin-2-amine hydrochloride salt]
215 to 217	CN(CCc1ccc(Nc2ncc3c(n2)-c2ccccc2C(c2cccc(Br)c2)C3)cc1)C1CCCCC1 (stereo not drawn) [Example 29, 6-(3-bromophenyl)-N-(4-(2-(cyclohexyl(methyl)amino)ethyl)phenyl)-5,6-dihydrobenzo[h]quinazolin-2-amine]
190 to 192	COCCN1CCN(CCc2ccc(Nc3ncc4c(n3)-c3ccccc3[C@@H](c3ccc(F)c(F)c3)C4)cc2)CC1 (as salt: hydrochloride) [Example 90, (R)-6-(3,4-difluorophenyl)-N-(4-(2-(4-(2-methoxyethyl)piperazin-1-yl)ethyl)phenyl)-5,6-dihydrobenzo[h]quinazolin-2-amine hydrochloride]
174 to 176	CC(C)c1ccc2c(c1)C(c1ccc(Cl)c(Cl)c1)Cc1cnc(N)nc1-2 (stereo not drawn) [Example 20, 6-(3,4-dichlorophenyl)-8-isopropyl-5,6-dihydrobenzo[h]quinazolin-2-amine]
52 to 54	COCCN1CCN(CCc2ccc(Nc3ncc4c(n3)-c3ccccc3C(c3ccccc3)C4)cc2)CC1 (stereo not drawn) [Example 65, N-(4-(2-(4-(2-methoxyethyl)piperazin-1-yl)ethyl)phenyl)-6-phenyl-5,6-dihydrobenzo[h]quinazolin-2-amine]
120 to 122	CN(C)CCCNc1ncc2c(n1)-c1ccccc1C(c1cccc(Br)c1)C2 (stereo not drawn) [Example 5, N^1-(6-(3-bromophenyl)-5,6-dihydrobenzo[h]quinazolin-2-yl)-N^3,N^3-dimethylpropane-1,3-diamine]
83 to 85	Brc1cccc(C2Cc3cnc(Nc4ccc(CCNCCN5CCCC5)cc4)nc3-c3ccccc32)c1 (stereo not drawn) [Example 47, 6-(3-bromophenyl)-N-(4-(2-(2-(pyrrolidin-1-yl)ethylamino)ethyl)phenyl)-5,6-dihydrobenzo[h]quinazolin-2-amine]
180 to 185	CCCCNCCc1cc(Nc2ncc3c(n2)-c2ccccc2[C@H](c2ccccc2F)C3)ccc1F (as salt: hydrochloride) [Example 171, (R)—N-(3-(2-(butylamino)ethyl)-4-fluorophenyl)-6-(2-fluorophenyl)-5,6-dihydrobenzo[h]quinazolin-2-amine hydrochloride salt]
139 to 140	COCCN1CCN(CCc2ccc(Nc3ncc4c(n3)-c3ccccc3C(c3ccccc3C(F)(F)F)C4)cc2)CC1 (stereo not drawn) [Example 69, N-(4-(2-(4-(2-methoxyethyl)piperazin-1-yl)ethyl)phenyl)-6-(2-(trifluoromethyl)phenyl)-5,6-dihydrobenzo[h]quinazolin-2-amine]
85 to 87	Brc1cccc(C2Cc3cnc(Nc4ccc(CCNCCN5CCOCC5)cc4)nc3-c3ccccc32)c1 (stereo not drawn) [Example 45, 6-(3-bromophenyl)-N-(4-(2-(2-morpholinoethylamino)ethyl)phenyl)-5,6-dihydrobenzo[h]quinazolin-2-amine]
154 to 157	CN(CCc1ccccc1)CCc1cccc(Nc2ncc3c(n2)-c2ccccc2[C@H](c2ccc(Cl)c(Cl)c2)C3)c1 (as salt: hydrochloride)
261 to 263	COCCN1CCN(CCc2ccc(Nc3ncc4c(n3)-c3ccccc3[C@H](c3ccc(Cl)cc3)C4)cc2)CC1 (as salt: hydrochloride) [Example 113, (S)-6-(4-chlorophenyl)-N-(4-(2-(4-(2-methoxyethyl)piperazin-1-yl)ethyl)phenyl)-5,6-dihydrobenzo[α]quinazolin-2-amine hydrochloride]
148 to 150	COCCN1CCN(CCc2cccc(Nc3ncc4c(n3)-c3ccccc3[C@@H](c3ccccc3F)C4)c2)CC1 (as salt: hydrochloride) [Example 164, (S)-6-(2-fluorophenyl)-N-(3-(2-(4-(2-methoxyethyl)piperazin-1-yl)ethyl)phenyl)-5,6-dihydrobenzo[h]quinazolin-2-amine]
170 to 175	Clc1ccc(C2Cc3cnc(Nc4ccc(CCN5CCCCC5)cc4)nc3-c3ccccc32)cc1 (stereo not drawn) (as salt: hydrochloride) [Example 53, 6-(4-chlorophenyl)-N-(4-(2-(piperidin-1-yl)ethyl)phenyl)-5,6 dihydrobenzo[h]quinazolin-2-amine]
170 to 175	CCCCN(C)CCc1ccc(Nc2ncc3c(n2)-c2ccccc2[C@H](c2ccc(Br)cc2)C3)cc1 (as salt: hydrochloride) [Example 98, (S)-6-(4-bromophenyl)-N-(4-(2-(butyl(methyl)amino)ethyl)phenyl)-5,6-dihydrobenzo[h]quinazolin-2-amine hydrochloride salt]

melting point [°C]	SMILES
162 to 163	OCCc1ccccc1Nc1ncc2c(n1)-c1ccccc1[C@H](c1ccccc1F)C2 [Example 177, (R)-2-(2-(6-(2-fluorophenyl)-5,6-dihydrobenzo[h]quinazolin-2-ylamino)phenyl)ethanol]
145 to 150	CCCCN(C)CCc1ccc(Nc2ncc3c(n2)-c2ccccc2C(c2ccc(Cl)cc2)C3)cc1 (stereo not drawn) (as salt: hydrochloride)
78 to 81	CCCCN(C)CCc1ccc(Nc2ncc3c(n2)-c2ccccc2[C@H](c2ccccc2F)C3)cc1 (as salt: hydrochloride) [Example 110, (R)—N-(4-(2-(butyl(methyl)amino)ethyl)phenyl)-6-(2-fluorophenyl)-5,6-dihydrobenzo[h]quinazolin-2-amine hydrochloride]
130 to 131	CN(CCc1ccc(Nc2ncc3c(n2)-c2ccccc2C(c2ccc(Cl)c(Cl)c2)C3)cc1)C1CCCCC1 (stereo not drawn) [Example 30, N-(4-(2-(cyclohexyl(methyl)amino)ethyl)phenyl)-6-(3,4-dichlorophenyl)-5,6-dihydrobenzo[h]quinazolin-2-amine]
165 to 167	CN(C)CCc1ccc(Nc2ncc3c(n2)-c2ccccc2[C@H](c2ccc(F)c(F)c2)C3)cc1 (as salt: hydrochloride) [Example 87, (S)-6-(3,4-difluorophenyl)-N-(4-(2-(dimethylamino)ethyl)phenyl)-5,6-dihydrobenzo[h]quinazolin-2-amine hydrochloride]
143 to 145	COCCN1CCN(CCc2ccc(Nc3ncc4c(n3)-c3ccccc3[C@@H](c3ccccc3Cl)C4)cc2)CC1 (as salt: hydrochloride)
119 to 121	CN1CCN(CCc2ccc(Nc3ncc4c(n3)-c3ccccc3C(c3ccc(Cl)c(Cl)c3)C4)cc2)CC1 (stereo not drawn) [Example 52, 6-(3,4-dichlorophenyl)-N-(4-(2-(4-methylpiperazin-1-yl)ethyl)phenyl)-5,6-dihydrobenzo[h]quinazolin-2-amine]
80 to 82	CCCCN(C)CCc1ccc(Nc2ncc3c(n2)-c2ccccc2C(c2ccccc2C(F)(F)F)C3)cc1 (stereo not drawn) [Example 68, N-(4-(2-(butyl(methyl)amino)ethyl)phenyl)-6-(2-(trifluoromethyl)phenyl)-5,6-dihydrobenzo[h]quinazolin-2-amine]
66 to 68	CCCCN(C)CCc1ccc(Nc2ncc3c(n2)-c2ccccc2C(c2cccc(Br)c2)C3)cc1 (stereo not drawn) [Example 26, 6-(3-bromophenyl)-N-(4-(2-(butyl(methyl)amino)ethyl)phenyl)-5,6-dihydrobenzo[h]quinazolin-2-amine]
88 to 90	CCN(CCc1ccc(Nc2ncc3c(n2)-c2ccccc2C(c2cccc(Br)c2)C3)cc1)Cc1ccncc1 (stereo not drawn) [Example 41, 6-(3-bromophenyl)-N-(4-(2-(ethyl(pyridin-4-ylmethyl)amino)ethyl)phenyl)-5,6-dihydrobenzo[h]quinazolin-2-amine]
167 to 172	CN(CCc1ccc(Nc2ncc3c(n2)-c2ccccc2[C@H](c2cccc(Br)c2)C3)cc1)C1CCCCC1 (as salt: hydrochloride) [Example 79, (S)-6-(3-bromophenyl)-N-(4-(2-(cyclohexyl(methyl)amino)ethyl)phenyl)-5,6-dihydrobenzo[h]quinazolin-2-amine hydrochloride]
97 to 99	Fc1ccc([C@@H]2Cc3cnc(Nc4ccc(CCN5CCOCC5)cc4)nc3-c3ccccc32)cc1F (as salt: hydrochloride) [Example 92, (S)-6-(3,4-difluorophenyl)-N-(4-(2-morpholinoethyl)phenyl)-5,6-dihydrobenzo[h]quinazolin-2-amine hydrochloride]
75 to 77	CCCCN(C)CCc1ccc(Nc2ncc3c(n2)-c2ccccc2[C@H](c2ccc(Cl)cc2)C3)cc1 (as salt: hydrochloride)
120 to 125	Brc1cccc([C@@H]2Cc3cnc(Nc4ccc(CCN5CCCCC5)cc4)nc3-c3ccccc32)c1 (as salt: hydrochloride) [Example 78, (S)-6-(3-bromophenyl)-N-(4-(2-(piperidin-1-yl)ethyl)phenyl)-5,6-dihydrobenzo[h]quinazolin-2-amine hydrochloride]
158 to 164	CN(CCc1ccc(Nc2ncc3c(n2)-c2ccccc2[C@H](c2ccccc2F)C3)cc1)C1CCCCC1 (as salt: HCl) [Example 95, (R)—N-(4-(2-(cyclohexyl(methyl)amino)ethyl)phenyl)-6-(2-fluorophenyl)-5,6-dihydrobenzo[h]quinazolin-2-amine]
221 to 225	COCCNCCc1ccc(Nc2ncc3c(n2)-c2ccccc2[C@H](c2ccc(F)c(F)c2)C3)cc1 (as salt: HCl) [Example 82, (S)-6-(3,4-difluorophenyl)-N-(4-(2-(2-methoxyethylamino)ethyl)phenyl)-5,6-dihydrobenzo[h]quinazolin-2-amine]

— patent US8357694B2, “Substituted 5,6-dihydro-6-phenylbenzo[F]isoquinolin-2-amine compounds” (ArQule, Inc., priority 2008, dated 2013)
